Values of other authors in publication PMC10928227, “Assessing biologic/toxicologic effects of extractables from plastic contact materials for advanced therapy manufacturing using cell painting assay and cytotoxicity screening” (Scientific Reports, 2024).
Read-outs that look alike come from different tables or passages of the source.

Assays:
[1] = cited from earlier work; for DNA damage and repair, Single Cell Gel Electrophoresis (comet) Assay: ref Yu F. Sasaki et. al., 2000, Critical Reviews in Toxicology,30(6),Pp.629-799
[2] = cited from earlier work; for Gene mutation, Mammalian Cell Gene Mutation Assay: T-lymphoma Cell Lines
[3] = Database Genotoxicity & Carcinogenicity ECVAM, ref EURL ECVAM genotoxicity and carcinogencity database, Madia F et al, 2020
[4] = in Vivo, Database Genotoxicity & Carcinogenicity ECVAM, ref EURL ECVAM genotoxicity and carcinogencity database, Madia F et al, 2020
[5] = in Vivo, Database Genotoxicity OASIS
[6] = in Vitro, Chinese hamster, Chinese Hamster Lung (CHL), Duration 6÷18 h, Database Genotoxicity OASIS, ref Sofuni, T., Ed. (1998). Data Book of Chromosomal Aberration Test In Vitro, Revised Edition
[7] = in Vitro, Chinese hamster, Chinese Hamster Lung (CHL), Duration 24÷48 h, Database Genotoxicity OASIS, ref Sofuni, T., Ed. (1998). Data Book of Chromosomal Aberration Test In Vitro, Revised Edition
[8] = in Vitro, Database Genotoxicity & Carcinogenicity ECVAM, ref EURL ECVAM genotoxicity and carcinogencity database, Madia F et al, 2020
[9] = in Vitro, No Strain Information, Database Genotoxicity OASIS, ref Mutation Research 584 (2005) 1-256, Kirkland et al.
[10] = in Vitro, Database Genotoxicity OASIS, ref Mutation Research 584 (2005) 1-256, Kirkland et al.
[11] = Salmonella typhimurium, No Strain Information, in Vitro, Database: Genotoxicity OASIS, ref Mutation Research 584 (2005) 1-256, Kirkland et al.
[12] = Salmonella typhimurium, Strain TA 98, in Vitro, Database: Bacterial mutagenicity ISSSTY, ref CCRIS database,Toxnet databases (Romualdo Benigni)
[13] = Salmonella typhimurium, Strain TA 98, in Vitro, Database: Genotoxicity OASIS, ref P&G
[14] = Salmonella typhimurium, Strain TA 100, in Vitro, Database: Bacterial mutagenicity ISSSTY, ref CCRIS database,Toxnet databases (Romualdo Benigni)
[15] = Salmonella typhimurium, Strain TA 100, in Vitro, Database: Genotoxicity OASIS, ref P&G
[16] = Salmonella typhimurium, Strain TA 102, in Vitro, Database: Bacterial mutagenicity ISSSTY, ref CCRIS database,Toxnet databases (Romualdo Benigni)
[17] = Salmonella typhimurium, Strain TA 1535, in Vitro, Database: Bacterial mutagenicity ISSSTY, ref CCRIS database,Toxnet databases (Romualdo Benigni)
[18] = Salmonella typhimurium, Strain TA 1535, in Vitro, Database: Genotoxicity OASIS, ref P&G
[19] = Salmonella typhimurium, Strain TA 1537, in Vitro, Database: Bacterial mutagenicity ISSSTY, ref CCRIS database,Toxnet databases (Romualdo Benigni)
[20] = Salmonella typhimurium, Strain TA 1537, in Vitro, Database: Genotoxicity OASIS, ref P&G
[21] = in Vitro, Salmonella typhimurium, Strain TA 97, Database Genotoxicity OASIS, ref P&G
[22] = in Vitro, Salmonella typhimurium, Strain TA 98, Database Genotoxicity OASIS, ref P&G
[23] = in Vitro, Salmonella typhimurium, Strain TA 100, Database Genotoxicity OASIS, ref P&G
[24] = in Vitro, Salmonella typhimurium, Strain TA 102, OECD Guideline 471, Database Genotoxicity OASIS, ref CCRIS database,Toxnet databases
[25] = in Vitro, Salmonella typhimurium, Strain TA 1535, Database Genotoxicity OASIS, ref P&G
[26] = in Vitro, Salmonella typhimurium, Strain TA 1537, Database Genotoxicity OASIS, ref P&G
[27] = in Vitro, Salmonella typhimurium, Strain TA 1538, Database Genotoxicity OASIS, ref P&G

## Cc1cc(C(C)(C)C)c(O)c(C(C)(C)C)c1 [128-37-0]
[1]; [3]
  Chromosome aberration, in Vivo Mammalian Chromosome Aberration Test: Negative
[1]; [4]
  Chromosome aberration, Micronucleus Assay: Negative
  DNA damage and repair, COMET or Alkaline Elution: Positive
  DNA damage and repair, DNA Adducts: Negative
[1]; in Vivo, Database Genotoxicity OASIS, ref Bruce, W. R., & Heddle, J. A. (1979), Can. J. Genet. Cytol. 21, 319-334
  Chromosome aberration, Micronucleus Assay: Negative
[1]; [5]
  DNA damage and repair, Single Cell Gel Electrophoresis (comet) Assay: Negative
[2]; [6]
  Chromosome aberration, in Vitro Mammalian Chromosome Aberration Test: Negative
[2]; [7]
  Chromosome aberration, in Vitro Mammalian Chromosome Aberration Test: Negative
[2]; [8]
  Chromosome aberration, in Vitro Mammalian Chromosome Aberration Test: Equivocal
  Gene mutation, Mammalian Cell Gene Mutation (MLA HPRT): Positive
[2]; [9]
  Chromosome aberration, in Vitro Mammalian Chromosome Aberration Test: Negative
[2]; [10]
  Gene mutation, Mammalian Cell Gene Mutation Assay: Positive

## Oc1ccccc1 [108-95-2]
[1]; [3]
  Chromosome aberration, in Vivo Mammalian Chromosome Aberration Test: Negative
[1]; [4]
  Chromosome aberration, Micronucleus Assay: Positive
  DNA damage and repair, COMET or Alkaline Elution: Positive
[1]; in Vivo, Database Genotoxicity OASIS, ref Ciranni, R., Barale, & Marrazzini, A. (1988), Mutat Res, 208, 61-67
  Chromosome aberration, Micronucleus Assay: Negative
[1]; [5]
  DNA damage and repair, Single Cell Gel Electrophoresis (comet) Assay: Positive
[2]; [11]
  Gene mutation, Bacterial Reverse Mutation Assay (e.g. Ames Test): Negative
[2]; Salmonella typhimurium, Strain TA 97, in Vitro, Database: Bacterial mutagenicity ISSSTY, ref CCRIS database,Toxnet databases (Romualdo Benigni)
  Gene mutation, Bacterial Reverse Mutation Assay (e.g. Ames Test): Negative
[2]; [12]
  Gene mutation, Bacterial Reverse Mutation Assay (e.g. Ames Test): Negative
[2]; [13]
  Gene mutation, Bacterial Reverse Mutation Assay (e.g. Ames Test): Negative
[2]; [14]
  Gene mutation, Bacterial Reverse Mutation Assay (e.g. Ames Test): Negative
[2]; [15]
  Gene mutation, Bacterial Reverse Mutation Assay (e.g. Ames Test): Negative
[2]; [16]
  Gene mutation, Bacterial Reverse Mutation Assay (e.g. Ames Test): Negative
[2]; Salmonella typhimurium, Strain TA 104, in Vitro, Database: Bacterial mutagenicity ISSSTY, ref CCRIS database,Toxnet databases (Romualdo Benigni)
  Gene mutation, Bacterial Reverse Mutation Assay (e.g. Ames Test): Negative
[2]; [17]
  Gene mutation, Bacterial Reverse Mutation Assay (e.g. Ames Test): Negative
[2]; [18]
  Gene mutation, Bacterial Reverse Mutation Assay (e.g. Ames Test): Negative
[2]; [19]
  Gene mutation, Bacterial Reverse Mutation Assay (e.g. Ames Test): Negative
[2]; [20]
  Gene mutation, Bacterial Reverse Mutation Assay (e.g. Ames Test): Negative
[2]; Salmonella typhimurium, Strain TA 7001, in Vitro, Database: Bacterial mutagenicity ISSSTY, ref CCRIS database,Toxnet databases (Romualdo Benigni)
  Gene mutation, Bacterial Reverse Mutation Assay (e.g. Ames Test): Negative
[2]; Salmonella typhimurium, Strain TA 7002, in Vitro, Database: Bacterial mutagenicity ISSSTY, ref CCRIS database,Toxnet databases (Romualdo Benigni)
  Gene mutation, Bacterial Reverse Mutation Assay (e.g. Ames Test): Negative
[2]; Salmonella typhimurium, Strain TA 7003, in Vitro, Database: Bacterial mutagenicity ISSSTY, ref CCRIS database,Toxnet databases (Romualdo Benigni)
  Gene mutation, Bacterial Reverse Mutation Assay (e.g. Ames Test): Negative
[2]; Salmonella typhimurium, Strain TA 7004, in Vitro, Database: Bacterial mutagenicity ISSSTY, ref CCRIS database,Toxnet databases (Romualdo Benigni)
  Gene mutation, Bacterial Reverse Mutation Assay (e.g. Ames Test): Negative
[2]; Salmonella typhimurium, Strain TA 7005, in Vitro, Database: Bacterial mutagenicity ISSSTY, ref CCRIS database,Toxnet databases (Romualdo Benigni)
  Gene mutation, Bacterial Reverse Mutation Assay (e.g. Ames Test): Negative
[2]; Salmonella typhimurium, Strain TA 7006, in Vitro, Database: Bacterial mutagenicity ISSSTY, ref CCRIS database,Toxnet databases (Romualdo Benigni)
  Gene mutation, Bacterial Reverse Mutation Assay (e.g. Ames Test): Negative
[2]; Salmonella typhimurium, strain TA 100, in Vitro, scale Gene mutation I, ref CCRIS database, Toxnet databases, Database: Bacterial mutagenicity ISSSTY (Romualdo Benigni, 2011)
  Genetic Toxicity, Gene mutation (Bacterial Reverse Mutation Assay, e.g. Ames Test): Negative
[2]; [8]
  Chromatids exchanges/ recombination, Sister Chromatid Exchange (SCE): Positive
  Chromosome aberration, Micronucleus Assay: Positive
  DNA damage and repair, DNA Adducts: Positive
  Gene mutation, Bacterial Reverse Mutation Assay (e.g. Ames Test): Negative
  Gene mutation, Mammalian Cell Gene Mutation (MLA HPRT): Positive
[2]; [10]
  Gene mutation, in Vitro Mammalian Cell Micronucleus Test: Positive
  Gene mutation, Mammalian Cell Gene Mutation Assay: Positive
[2]; [9]
  Chromosome aberration, in Vitro Mammalian Chromosome Aberration Test: Positive
[2]; [21]
  Gene mutation, Bacterial Reverse Mutation Assay (e.g. Ames Test): Negative
[2]; [22]
  Gene mutation, Bacterial Reverse Mutation Assay (e.g. Ames Test): Negative
[2]; [23]
  Gene mutation, Bacterial Reverse Mutation Assay (e.g. Ames Test): Negative
[2]; [24]
  Gene mutation, Bacterial Reverse Mutation Assay (e.g. Ames Test): Negative
[2]; [25]
  Gene mutation, Bacterial Reverse Mutation Assay (e.g. Ames Test): Negative
[2]; [26]
  Gene mutation, Bacterial Reverse Mutation Assay (e.g. Ames Test): Negative
[2]; [27]
  Gene mutation, Bacterial Reverse Mutation Assay (e.g. Ames Test): Negative
[2]; in Vitro, scale Mutagenicity I (ECVAM), ref EURL ECVAM genotoxicity and carcinogencity database, Madia F et al, 2020
  Genetic Toxicity, unscheduled DNA synthesis (UDS in Vitro): Positive

## CC(C)(c1ccc(O)cc1)c1ccc(O)cc1 [80-05-7]
[1]; [3]
  Chromosome aberration, in Vivo Mammalian Chromosome Aberration Test: Positive
[1]; [4]
  Chromosome aberration, Micronucleus Assay: Negative
[2]; [11]
  Gene mutation, Bacterial Reverse Mutation Assay (e.g. Ames Test): Negative
[2]; Salmonella typhimurium, Strain TA 97A, in Vitro, Database: Bacterial mutagenicity ISSSTY, ref CCRIS database,Toxnet databases (Romualdo Benigni)
  Gene mutation, Bacterial Reverse Mutation Assay (e.g. Ames Test): Negative
[2]; [12]
  Gene mutation, Bacterial Reverse Mutation Assay (e.g. Ames Test): Negative
[2]; [13]
  Gene mutation, Bacterial Reverse Mutation Assay (e.g. Ames Test): Negative
[2]; [14]
  Gene mutation, Bacterial Reverse Mutation Assay (e.g. Ames Test): Negative
[2]; [15]
  Gene mutation, Bacterial Reverse Mutation Assay (e.g. Ames Test): Negative
[2]; [16]
  Gene mutation, Bacterial Reverse Mutation Assay (e.g. Ames Test): Negative
[2]; [17]
  Gene mutation, Bacterial Reverse Mutation Assay (e.g. Ames Test): Negative
[2]; [18]
  Gene mutation, Bacterial Reverse Mutation Assay (e.g. Ames Test): Negative
[2]; [19]
  Gene mutation, Bacterial Reverse Mutation Assay (e.g. Ames Test): Negative
[2]; [20]
  Gene mutation, Bacterial Reverse Mutation Assay (e.g. Ames Test): Negative
[2]; [6]
  Chromosome aberration, in Vitro Mammalian Chromosome Aberration Test: Negative
[2]; [7]
  Chromosome aberration, in Vitro Mammalian Chromosome Aberration Test: Negative
[2]; [8]
  Chromosome aberration, Micronucleus Assay: Negative
  Chromosome aberration, in Vitro Mammalian Chromosome Aberration Test: Positive
  Gene mutation, Bacterial Reverse Mutation Assay (e.g. Ames Test): Negative
  Gene mutation, Mammalian Cell Gene Mutation (MLA HPRT): Inadequate
[2]; [9]
  Chromosome aberration, in Vitro Mammalian Chromosome Aberration Test: Positive
[2]; in Vitro, Salmonella typhimurium, No Strain Information, Database Genotoxicity OASIS, ref Journal of Medicinal Chemistry 48 (1), pp. 312-32, 25, Kazius J, McGuire R., Bursi R
  Gene mutation, Bacterial Reverse Mutation Assay (e.g. Ames Test): Negative
[2]; [21]
  Gene mutation, Bacterial Reverse Mutation Assay (e.g. Ames Test): Negative
[2]; [22]
  Gene mutation, Bacterial Reverse Mutation Assay (e.g. Ames Test): Negative
[2]; [23]
  Gene mutation, Bacterial Reverse Mutation Assay (e.g. Ames Test): Negative
[2]; [24]
  Gene mutation, Bacterial Reverse Mutation Assay (e.g. Ames Test): Negative
[2]; [25]
  Gene mutation, Bacterial Reverse Mutation Assay (e.g. Ames Test): Negative
[2]; [26]
  Gene mutation, Bacterial Reverse Mutation Assay (e.g. Ames Test): Negative
[2]; [27]
  Gene mutation, Bacterial Reverse Mutation Assay (e.g. Ames Test): Negative
[2]; [10]
  Gene mutation, Mammalian Cell Gene Mutation Assay: Negative
